IC50 data for 1 compound are collected here from patent publication US10130629B2, “Pharmaceutical combinations” (Novartis AG, priority 2015, dated 2018).

The subject of assay [1] is HuH-7 hepatocellular carcinoma cells. Description: Methylene blue staining proliferation assay (MBS). The class given is cell-based. The following applies: Homo sapiens, 72 hours after compound addition, read-out: HUH7 proliferation (nM) MBS. How it is done:
Methylene blue staining proliferation assay (MBS): The effect of the compound on cell proliferation is assessed using HuH-7 hepatocellular carcinoma cells obtained from the Japanese Collection of Research Bioresources Cell Bank (Cat# JCRB0403) and cultured in the vendor-recommended medium (DMEM high glucose (Amimed Cat#1-26F01-I), 10% foetal calf serum (Invitrogen Cat#16140-071), 1 mM sodium pyruvate (Amimed Cat#5-60F00-H), 1× Penicillin/Streptomycin (Amimed Cat#4-01F00-H)) at 37° C. in a humidified 5% CO2 incubator. Specifically, 5000 cells/well were seeded in 96-well tissue culture plates (TPP Cat#92696) in a total media volume of 100 μl/well and increasing compound dilutions or DMSO were added 24 hours thereafter in triplicates. 72 hours after compound addition, cells were fixed by adding 25 μL/well of 20% glutaraldehyde (Sigma Aldrich Cat# G400-4) and incubated for 10 minutes at room temperature. Cells were washed three times with H2O, 200 μL/well and stained with 100 μL/well 0.05% methylene blue (ABCR GmbH Cat# AB117904) for 10 minutes at room temperature. Cells were washed 3 times with H2O, 200 μL/well and then lysed by adding 200 μL/well of 3% HCl (Fluka Cat#84422) for 30 minutes at room temperature with shaking. Optical density was measured at A650 nm. […]

The test system is the same in assay [2]. Description: CellTiter Glo (CTG) proliferation assay. The class given is cell-based. The settings on record: Homo sapiens, Huh-7, 72 h; 3 days incubation; half-maximal growth inhibition; read-out: HUH7 proliferation (nM) CTG. How it is done:
CellTiter Glo (CTG) assay: The functional effect of compounds on cell proliferation is assessed using HuH-7 hepatocellular carcinoma cells obtained from the Japanese Collection of Research Bioresources Cell Bank (Cat# JCRB0403) and cultured in the vendor-recommended medium (DMEM high glucose (Amimed Cat#1-26F01-I), 10% foetal calf serum (Invitrogen Cat#16140-071), 1 mM sodium pyruvate (Amimed Cat#5-60F00-H), 1× Penicillin/Streptomycin (Amimed Cat#4-01F00-H)) at 37° C. in a humidified 5% CO2 incubator. Compound-mediated suppression of cell proliferation/viability is assessed by quantification of cellular ATP levels using the CellTiter-Glo (CTG) reagent (Promega, Cat# G7573). […] Dose-response effects are assessed by 3-fold serial dilutions of the test compound, starting at 10 μM. Following incubation of the cells for 3 days at 37° C. and 5% CO2, the effect of inhibitors on cell viability is quantified following addition of 50 μl CTG and luminescence measurement (integration time: 500 ms) as per vendor manual, using a correspondingly equipped multi-mode plate reader (M200Pro, TECAN, Switzerland). For data analysis, the assay background value determined in wells containing medium, but no cells, is subtracted from all data points. […] Compound concentrations leading to half-maximal growth inhibition ([…]) are determined using standard four parameter curve fitting (XLfit 5.2., IDBS, UK).
In general terms: Cellular ATP, detected with luciferase, serves as a proxy for viable cell number.

On to `COCCNc1cc(NC(=O)N2CCCc3cc(CN4CCN(C)CC4=O)c(C=O)nc32)ncc1C#N` [Example 83, N-(5-cyano-4-((2-methoxyethyl)amino)pyridin-2-yl)-7-formyl-6-((4-methyl-2-oxopiperazin-1-yl)methyl)-3,4-dihydro-1,8-naphthyridine-1(2H)-carboxamide], for which the figures for the IC50 in assay [1] and in assay [2] were 12 nM and 60.9 nM, respectively.
